Assay results: patent US11026936B2, “Piperidinyl-propanone derivatives” (Merck Patent GmbH, priority 2016, dated 2021)

Experiments:
human PDHK2 (12-407) = human PDHK2 (12-407) (Homo sapiens (Human), UniProt Q15119); assay: Isothermal titration calorimetry (ITC) binding; settings: 30° C., pH 7.5
Protocol: Isothermal Titration Calorimetry
ITC measurements were performed with a VP-ITC micro calorimeter (Microcal, LLC/GE Healthcare Bio-Sciences AB, Uppsala, Sweden). In general titrations were performed by titrating the protein (50 μM) to the test compound (5 μM) in 12 μl injections. All binding experiments were carried out at 30° C. In general the test compounds were diluted form DMSO stock solutions into the measurement buffer with a maximum final concentration of 1% DMSO. The measurement buffer was 20 mM HEPES, 135 mM KCl, 1 mM TCEP, 2 mM MgCl2, 15 mM NaH2PO4, pH 7.5. The human PDHK2 (12-407) was produced in E. coli as his-tagged protein and purified by affinity chromatography. The tag was removed by side specific proteolysis. Before titration the protein buffer was changed to the measurement buffer containing the same DMSO concentration as the test compound dilution. ITC data analysis was performed using Origin 7 calorimetry software from the same supplier. For most measurements a binding model of one binding site was assumed. According to the applied mathematical model it is possible to calculate the binding constant (KA), the observed binding enthalpy (ΔH^obs) as well as the stoichiometry (N) of the formed complex. Preceding analysis the raw data was corrected for the heats of dilution by extrapolating from the saturation value from the end of titration. In order to allow for direct comparison between the respective experimental series and protein preparations the protein concentration was corrected by referencing titrations to a well behaved standard inhibitor. The apparent stoichiometry values defined the fraction of binding competent protein and compensated for relative errors in protein concentration measurements. This corrected protein concentration was used to set up ITC experiment series with test compounds. Any deviations from ideal 1:1 stoichiometry observed here were attributed to errors in compound concentration. This nominal compound concentration was corrected as well to achieve 1:1 stoichiometry in the fit.

PDHK2 = PDHK2 (Homo sapiens (Human), UniProt Q15119); assay: Biochemical activity testing of PDHK2: PDC inactivation assay; settings: human rec PDHK2, PDC from porcine heart, ATP 5 μM; read-out: IC50 PDHK2 (enzyme assay)
Source text: Biochemical Activity Testing of PDHK2: PDC Inactivation Assay
The biochemical activity assay for PDHK2 is based on the inactivation of PDC through phosphorylation by PDHK2. The assay is run in two steps: the enzymatic PDHK2 reaction in which isolated PDC is phosphorylated by PDHK2 with ATP as co-substrate and the PDC activity assay in which pyruvate and NAD are converted to acetyl-CoA and NADH. The PDC activity correlates to the increase in NADH and thereby is detectable directly via the increasing fluorescence signal (Exc 340 nm, Em 450 nm). Inhibition of PDHK2 results in a lower phosphorylation status and thereby a less decrease in activity of PDC and a stronger increase in NADH fluorescence signal.
The PDC inactivation assay is performed in Greiner 384-well microtiter plates and is used for high throughput screen. 4 μl of PDHK2 (human, rec, Carna Bioscience, 10 ng/μl-137 nM final concentration) and PDC (isolated from porcine heart, Sigma-Aldrich, 20 mU/ml final concentration) are incubated in the absence or presence of the test compound (10 dilution concentrations) for 30 min at room temperature in kinase buffer (15 mM potassium phosphate buffer, pH 7.0, 60 mM KCl, 1.5 mM DTT, 2.5 mM MgCl2, 0.0125% (w/v) BSA, 0.125% Pluronic F-68). The kinase reaction is started by the addition of 4 μl ATP substrate solution (fc 5 μM in kinase buffer). After 30 min incubation at 37° C. 40 μl of PDC reaction solution (100 mM Tris/HCl, pH 7.8, 0.5 mM EDTA, 1 mM MgCl2, 50 mM NaF, 0.25 mM Coenzyme A, 5 mM pyruvate, 1 mM NAD, 5 mM DTT, 1 mM thiamine pyrophosphate) is added. The first fluorescence measurement is performed on a Perkin Elmer Envision (Exc 340 nm, Em 450 nm). The reaction is incubated for 45 min at room temperature. Afterwards a second fluorescence measurement is performed and the PDC activity is calculated by the difference between both measurements. As full value for the PDHK2 assay the inhibitor-free PDHK2 reaction is used. The pharmacological zero value used is DCA (Sigma-Aldrich) in a final concentration of 3 mM. The inhibitory values (IC50) were determined using either the program Symyx Assay Explorer® or Condosseo® from GeneData.

[1] = test system: PDH-E1alpha (pSer300) in HEK293T cells; assay: Cellular immunofluorescence assay, PDH-E1alpha (pSer300); type: cell-based; settings: Homo sapiens, HEK-293T, 5 hours incubation, read-out: IC50 (cell data)
Protocol: Cellular Assay for Determination of Compound Activities
Compound activities were determined in a cellular immunofluorescence assay. Human HEK293T cells were seeded into black 384-well plates with clear bottom and grown overnight.
Next day, test compounds were added to the wells and the plates incubated for 5 hours. Following this, cells were fixed with formaldehyde, permeabilised and blocked. The primary antibody, Anti-PDH-E1alpha (pSer300), AP1064 (Merck Millipore) was added and incubated overnight in the plate wells. Next, cells were washed and the seconday antibody, Alexa Fluor 488, goat anti-rabbit ab (A-11008, Invitrogen) was added together with Hoechst 33258 (H3569, Invitrogen) and incubated for 1 hour in the plate wells. Finally, cells were washed and the plates were measured on the laser scanning cytometer acumen hci (TTpLabtech).
The raw data were normalized against a pharmacological inhibitor control and dose response curves were generated by plotting the percent effect values using the software package Genedata screener (Genedata).

## Cc1nnc(C2(C3CCN(C(=O)[C@@](C)(O)C(F)(F)F)CC3)CC2)o1 [Compound A7, (R)-3,3,3-Trifluoro-2-hydroxy-2-methyl-1-{4-[1-(5-methyl-[1,3,4]oxadiazol-2-yl)-cyclopropyl]-piperidin-1-yl}-propan-1-one]
Human PDHK2 (12-407)
  Kd: 850 nM
PDHK2
  IC50: 3500 nM
[1]
  IC50: > 30000 nM

## CC(C)(C)c1nnc(C2(C3CCN(C(=O)[C@@](C)(O)C(F)(F)F)CC3)CC2)o1 [Compound A8, (R)-1-{4-[1-(5-tert-Butyl-[1,3,4]oxadiazol-2-yl)-cyclopropyl]-piperidin-1-yl}-3,3,3-trifluoro-2-hydroxy-2-methyl-propan-1-one]
Human PDHK2 (12-407)
  Kd: 650 nM
PDHK2
  IC50: 2400 nM
[1]
  IC50: 8700 nM

## CC(C)(c1nnc(-c2ccccc2)o1)C1CCN(C(=O)[C@@](C)(O)C(F)(F)F)CC1 [Compound A9, (R)-3,3,3-Trifluoro-2-hydroxy-2-methyl-1-{4-[1-methyl-1-(5-phenyl-[1,3,4]oxadiazol-2-yl)-ethyl]-piperidin-1-yl}-propan-1-one]
Human PDHK2 (12-407)
  Kd: 50 nM
PDHK2
  IC50: 720 nM
[1]
  IC50: 650 nM

## CC(C)(c1nnc(C2CCCCC2)o1)C1CCN(C(=O)[C@@](C)(O)C(F)(F)F)CC1 [Compound A10, (R)-1-{4-[1-(5-Cyclohexyl-[1,3,4]oxadiazol-2-yl)-1-methyl-ethyl]-piperidin-1-yl}-3,3,3-trifluoro-2-hydroxy-2-methyl-propan-1-one]
Human PDHK2 (12-407)
  Kd: 120 nM
PDHK2
  IC50: 400 nM
[1]
  IC50: 2000 nM

## CC1CN(C(=O)[C@@](C)(O)C(F)(F)F)CCC1C1(c2nnc(-c3ccccc3)[nH]2)CC1 (stereo partly drawn) [Compound A11, (R)-3,3,3-Trifluoro-2-hydroxy-2-methyl-1-{3-methyl-4-[1-(5-phenyl-1H-[1,2,4]triazol-3-yl)-cyclopropyl]-piperidin-1-yl}-propan-1-one]
Human PDHK2 (12-407)
  Kd: 8.3 nM
PDHK2
  IC50: 370 nM
[1]
  IC50: 120 nM

## CC1CN(C(=O)[C@@](C)(O)C(F)(F)F)CCC1C1(c2nnc(-c3ccccc3)o2)CC1 (stereo partly drawn) [Compound A12, (R)-3,3,3-Trifluoro-2-hydroxy-2-methyl-1-{3-methyl-4-[1-(5-phenyl-[1,3,4]oxadiazol-2-yl)-cyclopropyl]-piperidin-1-yl}-propan-1-one]
Human PDHK2 (12-407)
  Kd: 8.7 nM
PDHK2
  IC50: 270 nM
[1]
  IC50: 56 nM

## C[C@@H]1CN(C(=O)[C@@](C)(O)C(F)(F)F)CC[C@@H]1C1(c2nnc(-c3ccccc3)[nH]2)CC1 [Compound A14, (R)-3,3,3-Trifluoro-2-hydroxy-2-methyl-1-{(3S,4S)-3-methyl-4-[1-(5-phenyl-4H-[1,2,4]triazol-3-yl)-cyclopropyl]-piperidin-1-yl}-propan-1-one]
Human PDHK2 (12-407)
  Kd: < 2 nM
PDHK2
  IC50: 130 nM
[1]
  IC50: 19 nM

## C[C@@H]1CN(C(=O)[C@@](C)(O)C(F)(F)F)CC[C@@H]1C1(c2nnc(-c3ccc(F)cc3)[nH]2)CC1 [Compound A19, (R)-3,3,3-Trifluoro-1-((3S,4S)-4-{1-[5-(4-fluoro-phenyl)-4H-[1,2,4]triazol-3-yl]-cyclopropyl}-3-methyl-piperidin-1-yl)-2-hydroxy-2-methyl-propan-1-one]
Human PDHK2 (12-407)
  Kd: 4.2 nM
PDHK2
  IC50: 75 nM
[1]
  IC50: 28 nM

## Cc1ccc(-c2nnc(C3([C@H]4CCN(C(=O)[C@@](C)(O)C(F)(F)F)C[C@H]4C)CC3)[nH]2)cc1 [Compound A22, (R)-3,3,3-Trifluoro-2-hydroxy-2-methyl-1-{(3S,4S)-3-methyl-4-[1-(5-p-tolyl-4H-[1,2,4]triazol-3-yl)-cyclopropyl]-piperidin-1-yl}-propan-1-one]
Human PDHK2 (12-407)
  Kd: 2.6 nM
PDHK2
  IC50: 90 nM
[1]
  IC50: 16 nM

## Cc1ccc(-c2nnc(C3([C@H]4CCN(C(=O)[C@@](C)(O)C(F)(F)F)C[C@H]4C)CC3)o2)cc1 [Compound A25, (R)-3,3,3-Trifluoro-2-hydroxy-2-methyl-1-{(3S,4S)-3-methyl-4-[1-(5-p-tolyl-[1,3,4]oxadiazol-2-yl)-cyclopropyl]-piperidin-1-yl}-propan-1-one]
Human PDHK2 (12-407)
  Kd: 4.1 nM
PDHK2
  IC50: 100 nM
[1]
  IC50: 30 nM
